In PubChem BioAssay (NCI):
Where “and” joins values, the source holds several entries; their conditions need not be identical. Equal values may be shown once.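 Step 1: Grow cells in 96-well plates. Step 2: Expose to compound for 48 hours at 5 concentrations. Step 3: Interpolate endpoints linearly; if unreached, use highest concentration. The concentration for 50% growth inhibition is given as GI50. TGI is the concentration that stops growth completely.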

Experiments:
Assay in all cases: growth of human tumour cells (NCI), 48 h
OVCAR-4 ovarian = test system: OVCAR-4 ovarian
MDA-MB-231 breast = test system: MDA-MB-231 breast
MOLT-4 leukemia = test system: MOLT-4 leukemia
SNB-75 CNS = test system: SNB-75 CNS
SF-295 CNS = test system: SF-295 CNS
MCF7 breast = test system: MCF7 breast
CAKI-1 renal = test system: CAKI-1 renal
786-0 renal = test system: 786-0 renal
SR leukemia = test system: SR leukemia
HT29 colon = test system: HT29 colon

Structure (SMILES) | GI50 (OVCAR-4 ovarian) | TGI (OVCAR-4 ovarian) | GI50 (MDA-MB-231 breast) | TGI (MDA-MB-231 breast) | GI50 (MOLT-4 leukemia) | TGI (MOLT-4 leukemia) | GI50 (SNB-75 CNS) | TGI (SNB-75 CNS) | GI50 (SF-295 CNS) | TGI (SF-295 CNS) | GI50 (MCF7 breast) | TGI (MCF7 breast) | GI50 (CAKI-1 renal) | TGI (CAKI-1 renal) | GI50 (786-0 renal) | TGI (786-0 renal) | GI50 (SR leukemia) | TGI (SR leukemia) | GI50 (HT29 colon) | TGI (HT29 colon)
COc1cc(CNC(=O)CCSc2nc3ccccc3c(=O)n2Cc2cc(OC)c(OC)c(OC)c2)cc(OC)c1OC | 10.8 µM | 77.1 µM | 5.36 µM | 48.3 µM | 7.38 µM | > 100 µM | 2.06 µM | 12.9 µM | 4.36 µM | > 100 µM | 3.46 µM | > 100 µM | 5.46 µM | > 100 µM | 5.1 µM | 29 µM | 3.01 µM | > 100 µM |  | 
NC(=S)N/N=C\c1nccc2c(C(F)(F)C(F)(F)C(F)(F)F)cccc12 | 0.0329 µM | 1.49 µM | 0.0561 µM | 3 µM | 0.054 µM | 8.8 µM | 0.124 µM | 2.87 µM | 0.209 µM | 1.7 µM | 0.0515 µM | 7.54 µM | 0.183 µM | 1.59 µM | 0.26 µM | 0.978 µM | 0.0433 µM | > 32.4 µM | 0.137 µM | 3.62 µM
COc1cc(CC2CC(c3ccc4c(c3)OCO4)OC2=O)cc(OC)c1OC (configuration not stated) |  |  |  | > 100 µM |  | > 100 µM |  | > 100 µM |  | > 100 µM |  | > 100 µM |  | > 100 µM |  | > 100 µM |  | > 100 µM |  | > 100 µM
Cc1cc(Cl)ccc1NC(=O)NC(C)(C)COC(=O)Nc1cccc(Cl)c1 | 6.55 µM | 90.6 µM | 5.45 µM | 26 µM | 6.19 µM | 79 µM | 11.3 µM | 47.1 µM | 0.945 µM | 8.31 µM | 2.49 µM | 24.4 µM | 4.38 µM | 75.3 µM | 24.2 µM | > 100 µM | 8.31 µM | > 100 µM | 7.42 µM | 39.4 µM
O=[N+]([O-])c1ccc(NC(=S)N/N=C(\c2ccccc2)c2ccccn2)cc1 |  | 3.42 µM and 3.51 µM | 0.0286 µM | 2.06 µM and 1.86 µM | 0.00433 µM | > 20.5 µM |  | 3.76 µM | 1.87 µM | 3.5 µM and 2.98 µM | 0.0393 µM | 1.55 µM and 2.75 µM | 1.36 µM | 3.02 µM and 2.97 µM | 1.01 µM | 2.17 µM and 2.49 µM | 0.0286 µM | 2.98 µM and > 27.4 µM | 1.56 µM | 3.12 µM and 2.78 µM
O=C(Nc1cccc([N+](=O)[O-])c1)c1cc2ccccc2cc1O | 2.61 µM | > 100 µM | 1.47 µM | 3.64 µM | 2.08 µM | 6.24 µM | 2.84 µM | 55.2 µM | 1.96 µM | 5.33 µM | 1.36 µM | 6.21 µM | 1.16 µM | 4.88 µM | 1.28 µM | 4.74 µM | 1.46 µM | 8.17 µM | 3.09 µM | > 30.7 µM
O[C@H](CN1CC1)[C@@H](O)CN1CC1 | 15.4 µM | > 100 µM | 24 µM | 71.6 µM | 0.86 µM | > 100 µM | 2.94 µM | 21.4 µM | 0.382 µM | 1.71 µM | 1.84 µM | > 100 µM | 0.423 µM | 2.85 µM | 3.42 µM | 13.5 µM | 0.452 µM | > 100 µM | 10.2 µM | 26.6 µM
CN1N=Nc2c(C(F)(F)F)nn(-c3ccccc3)c2N(C)C1=O | > 100 µM | > 100 µM | > 100 µM | > 100 µM |  | > 45.3 µM | > 100 µM | > 100 µM | > 100 µM | > 100 µM | > 100 µM | > 100 µM | > 100 µM | > 100 µM | > 100 µM | > 100 µM | > 100 µM | > 100 µM | > 100 µM | > 100 µM
CN(C)c1ccc(N=C(C#N)c2nc(N)nc(N3CCN(c4ccccc4)CC3)n2)cc1 | 18.9 µM | > 34.1 µM | 10.7 µM | 31.3 µM | > 50 µM | > 50 µM | 6.9 µM | 25.6 µM | 14.7 µM | > 43.7 µM | 21 µM | 37.4 µM | 20.4 µM | > 46.7 µM | > 50 µM | > 50 µM | > 50 µM | > 50 µM | 21.2 µM | > 50 µM
CC(C)N(Cc1ccccc1)S(=O)(=O)c1n[nH]c(C(C)(C)C)n1 |  | > 100 µM |  | > 100 µM |  |  |  | > 100 µM |  | > 100 µM |  | > 100 µM |  | > 100 µM |  | > 100 µM |  | > 100 µM |  | > 100 µM
Cc1ccc(S(=O)(=O)c2ccsc2N)cc1 | 58.3 µM | > 100 µM | > 100 µM | > 100 µM | > 100 µM | > 100 µM |  |  | > 100 µM | > 100 µM | > 100 µM | > 100 µM | > 100 µM | > 100 µM | > 100 µM | > 100 µM | > 100 µM | > 100 µM | > 100 µM | > 100 µM
C[C@]12CC[C@H]3[C@@H](CCC4=C[C@@H](OC5OCC(OC6OC(CO)C(O)C(O)C6O)C(O)C5O)CC[C@@]43C=O)[C@@]1(O)CCC2C1=CC(=O)OC1 (some centres not stated) |  | 1.07 µM |  | > 73.7 µM |  | 0.346 µM |  | 12.8 µM |  | 3.53 µM |  | > 100 µM |  | 1.62 µM |  | 1.23 µM |  | 0.627 µM |  | 5.35 µM
O=c1oc2cc(OS(=O)(=O)c3ccccc3)ccc2c2c1CCCCC2 | 4.58 µM | > 100 µM | > 100 µM | > 100 µM | 4.35 µM | > 100 µM | 16.9 µM | > 100 µM | > 100 µM | > 100 µM | 5.14 µM | > 100 µM | 7.38 µM | > 100 µM | 6.24 µM | > 100 µM | 3.01 µM | > 100 µM | 2.84 µM | > 100 µM
N#C/C(=C\c1cccnc1)c1nc2ccccc2o1 | > 100 µM | > 100 µM | > 100 µM | > 100 µM | > 100 µM | > 100 µM | > 100 µM | > 100 µM | > 100 µM | > 100 µM | > 100 µM | > 100 µM | > 100 µM | > 100 µM | > 100 µM | > 100 µM | > 100 µM | > 100 µM | > 100 µM | > 100 µM
O=C1NC(O)CCN1C1CC(O)C(CO)O1 (configuration not stated) |  |  |  | > 100 µM |  | > 100 µM |  |  |  | > 100 µM |  | > 100 µM |  | > 100 µM |  | > 100 µM |  | > 100 µM |  | 
N=C1C(c2nc(-c3ccc(Br)cc3)cs2)=C(O)CN1CC1CCCO1 (configuration not stated) |  |  | > 100 µM | > 100 µM | > 100 µM | > 100 µM | 7.13 µM | > 100 µM | > 100 µM | > 100 µM | > 100 µM | > 100 µM | > 100 µM | > 100 µM | > 100 µM | > 100 µM | > 100 µM | > 100 µM | > 100 µM | > 100 µM
C#CCOc1cccc(Nc2ncc3ncn(C4CCN(C(=O)CCl)C4)c3n2)c1 (configuration not stated) |  |  | > 62.5 µM | > 62.5 µM | 11.3 µM | > 62.5 µM | > 62.5 µM | > 62.5 µM | > 62.5 µM | > 62.5 µM | 59.2 µM | > 62.5 µM | > 62.5 µM | > 62.5 µM | > 62.5 µM | > 62.5 µM | 7.72 µM | > 62.5 µM | > 62.5 µM | > 62.5 µM
O=C(Nc1ccccc1C(=O)Nc1nccs1)c1ccccc1 |  |  |  | > 100 µM |  | > 100 µM |  | > 100 µM |  | > 100 µM |  | > 100 µM |  | > 100 µM |  | > 100 µM |  | > 100 µM |  | > 100 µM
CC(=O)Nc1cc2cc(NS(=O)(=O)c3cc(C(F)(F)F)cc(C(F)(F)F)c3)ccc2oc1=O |  | > 100 µM |  | > 100 µM |  | > 100 µM |  |  |  | > 100 µM |  | > 100 µM |  | > 100 µM |  | > 100 µM |  | > 100 µM |  | > 100 µM
CC(C)=CCC/C(C)=C/[C@H]1OC(=O)CC12C[C@H](O)C=CC2=O (some centres not stated) |  |  | 1.55 µM | 3.29 µM |  |  | 1.64 µM | 4.2 µM | 1.98 µM | 4.69 µM | 0.421 µM | 1.29 µM | 0.827 µM | 2.3 µM | 0.727 µM | 1.93 µM | 0.383 µM | > 100 µM | 0.469 µM | 
N#CC1CCc2c(c(-c3cn[nH]c3C(F)(F)F)nc3c(F)cc4[nH]ncc4c23)C1 (configuration not stated) |  |  | 4.96 µM | 38.1 µM | 3.49 µM | 42.7 µM | 3.38 µM | 8.96 µM | 14 µM | 46.2 µM | 3.5 µM | 47.4 µM | 18.6 µM | > 100 µM | 10.9 µM | 59.4 µM | 2.92 µM | 59.1 µM | 9.6 µM | > 100 µM
C=Cc1cnc([N+](=O)[O-])n1C |  |  |  | > 100 µM |  | > 100 µM |  |  |  | > 100 µM |  | > 100 µM |  | > 100 µM |  | > 100 µM |  | 60.5 µM |  | > 100 µM
Cc1cc(O)c2c(c1)C(=O)C(c1c(C)cc3c(c1O)C(=O)C1OC1C3=O)=CC2=O (configuration not stated) |  | 11.1 µM |  | 4.14 µM |  |  |  | 28.1 µM |  | 32.6 µM |  | 12.1 µM |  | 2.11 µM |  | 4.16 µM |  | 40.1 µM |  | 11.7 µM
